“Also recorded” adds a separate entry of the source. Blank lines part the entries; values can stand above or below the molecule they belong to.
Experiments:
[1] = system: 35S:AtCKX1 and 35S:AtCKX2 tobacco seedlings; assay: Foliar spray of CKX overproducing tobacco seedlings grown in soil, phenotype complementation and root system; assay type: in vivo
Procedure: (§1) Transgenic 35S:AtCKX1 Arabidopsis and 35S:AtCKX1 and 35S:AtCKX2 tobacco seedlings grown in soil in the greenhouse were systematically treated with 10 μM of compound 12. Areal parts of the wild type and transgenic seedlings were sprayed every second day for 1 month with aqueous solution of compound 12 containing 0.01% Silwet L-77 wetting agent.

[2] = system: CKX1 overproducing Arabidopsis seedlings; assay: CKX1 overproducing Arabidopsis seedlings grown in vitro on MS medium, phenotype reversion; assay type: in vivo; details: in vitro on MS medium containing 0.1 μM compound
[3] = system: WT Arabidopsis plants; assay: Prolonged treatment of WT Arabidopsis plants, flowering; assay type: in vivo
Procedure: as §1
Flowers had aborted anthers and were sterile.

[4] = system: Human diploid fibroblasts BJ; assay: Attachment frequency test (adherence of fibroblasts); assay type: cell-based; details: 0-25 μM, attached cells counted after 6 hours, BJ passage 19
Procedure: Attachment frequency test is one of the methods for evaluation of acute toxicity of compounds against adherent cells. The tested compound is added into the medium with a defined number of trypsinised cells and after certain time the number of attached cells is counted. Human diploid fibroblasts BJ (passage 19) and standard cultivation medium (DMEM with 5 g/l glucose, 2 mM glutamin, 100 U/ml penicillin, 100 μg/ml streptomycin and 10% fetal calf serum) were used. The attached cells were counted after 6 hours. The experiment was done in three repetitions. […] Thus the compound doesn't show acute toxicity against fibroblasts.

[5] = system: Human diploid fibroblasts BJ; assay: Viability of human diploid fibroblasts by MTT assay; assay type: cell-based; details: 0-25 μM, 72 hours, BJ passage 19
Procedure: MTT is a standard colorimetric assay for measurement of proliferation and survival of the cells. Yellow MTT is reduced into violet formazan in metabolically active cells. The amount of the resulting formazan is measured by spectrophotometry. Human diploid fibroblasts BJ (passage 19) were seeded in 96-well plate (5.000 cells per well). After 6 hours, the cultivation medium (DMEM containing 5 g/l glucose, 2 mM glutamine, 100 U/ml penicillin, 100 μg/ml streptomycin and 10% fetal calf serum) was removed and fresh medium containing a test compound in concentrations 0-25 μM was added. Each concentration was tested in 5 replicates. MTT was added to the cells after 72 hours into final concentration of 0.5 mg/ml. Incubation time was 3 hours.

[6] = system: Senescent human diploid fibroblasts SNF25; assay: Effect on senescent human diploid fibroblasts (cell number); assay type: cell-based; details: 0-12.5 μM, days 7 and 14, SNF25 passage 53
Procedure: Senescent human diploid fibroblasts SNF25 (passage 53) were seeded in 24-well plate (10.000 cells/well). The cultivation medium (DMEM containing 5 g/l glucose, 2 mM glutamin, 100 U/ml penicillin, […] streptomycin and 10% fetal calf serum) was removed and replaced with the cultivation medium containing test compound in concentration range of 0-12.5 μM. Each concentration was tested in triplicate. The cell numbers were determined on days 7 and 14.

[7] = system: Human diploid fibroblasts HCA; assay: Anti-aging activity: senescence-associated beta-galactosidase in human fibroblasts; assay type: cell-based
Procedure: In this example, effects of the compounds of this invention on the activity of a senescence biomarker senescence-associated β-galactosidase was studied. Human diploid fibroblasts HCA of various passage levels were used for this purpose. The tested compounds were added to the medium at each passage. After the incubation period, cells were washed with PBS and fixed with 2% formaldehyde and 0.2% glutaraldehyde in PBS. After another wash with PBS, they were incubated with the staining solution comprising potassium ferricyanide (5 mM), potassium ferrocyanide (5 mM), MgCl2 (2 mM), X-gal (5-bromo-4-chloro-3-indolyl-β-D-galactopyranoside) (1 mg/ml), in citric/phosphate buffer (pH 6.0) at 37° C. (without CO2) for at least 1 hour. Following the incubation period, the numbers of cells expressing senescence-associated β-galactosidase (blue cells) were counted using light microscope.

[8] = system: Rat C6 glioma (ATCC No. CCL107); assay: Anti-inflammatory activity: isoproterenol-induced cAMP synthesis (ELISA); assay type: cell-based; details: cAMP after 30 min, induced by (−)-isoproterenol
Procedure: Anti-inflammatory activity of several of the substituted 6-anilinopurine derivatives of this invention was determined; kinetin was also evaluated as a control. Rat C6 glioma (ATCC No. CCL107) was cultivated in monolayer in serum-free chemically defined medium containing Ham's F10/minimal essential medium (1:1 v/v), 2 mM L-glutamine, 1% (v/v) minimal essential medium vitamins (100×), 1% (v/v) minimal essential medium nonessential amino acids (100×), 100 U/ml penicillin, […], and 30 nM sodium selenite. Incubation was performed at 37° C. in a 100% humidified atmosphere. The assays were performed in the logarithmic growth phase at a density of 2.5×10^5 cells/cm^2. Intracellular cAMP synthesis was induced by addition of 5 mM (−)-isoproterenol; various amounts of test compounds were added at the same time as the (−)-isoproterenol. After 30 min incubation, the cellular amount of cAMP was determined using ELISA (cAMP-enzyme immunoassay kit from Amersham). The I50 values were determined from the dose-response curve in duplicate.

SMILES: COc1cccc(Nc2nc(Cl)nc3nc[nH]c23)c1 [Compound 12, 2-Chloro-6-(3-methoxyanilino)purine]
complementation of wild-type phenotype (release from growth inhibition) ([1]; 35S:AtCKX1 and 35S:AtCKX2 tobacco, 10 μM sprayed every second day for 1 month): restauration of wild type phenotype
effect of foliar application on root system ([1]; transgenic tobaccos, foliar application, 10 μM): enhancement of the root system
reversion of WT phenotype [2]: reversion of WT phenotype appeared
effect on flowering [3]: altered development of flowers and inhibition of fertilisation

Attachment percentage [4]: not significantly influenced
SMILES: Clc1nc(Nc2ccccc2)c2[nH]cnc2n1 [Compound 1, 2-Chloro-6-anilinopurine]
viability of cells (MTT) [5]: not toxic for human diploid fibroblasts
cell number (cell survival) [6]: does not exert significant negative effect on cell survival

SMILES: c1coc(CNc2ncnc3nc[nH]c23)c1 [Kinetin, 6-furfurylaminopurine, reference compound]
Senescent Cells (%) HCA passage 25 ([7]; passage 25, cells expressing senescence-associated beta-galactosidase): 3%
Senescent Cells (%) HCA passage 50 ([7]; passage 50, cells expressing senescence-associated beta-galactosidase): 5%
Senescent Cells (%) HCA passage 80 ([7]; passage 80, cells expressing senescence-associated beta-galactosidase): 38%
Effect (anti-inflammatory activity) [8]: inactive; also recorded: Not active
